Values joined by “and” are separate entries in the source; they are usually repeats but may differ in a detail not shown here. Equal entries are not always repeated. Inconclusive results and toxic doses are left out. How the source made its calls: active means survival T/C of 150% or more; inactive means T/C below 125% in these data.
Test system: P388 leukemia ip, CD2F1 mice, survival T/C
Test: NCI In Vivo Anticancer Drug Screen. Data for tumor model P388 Leukemia (intraperitoneal) in CD2F1 (CDF1) mice
Conditions: endpoint: median survival time, higher = longer survival
How it was run: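 Mice carrying the transplanted tumor received test compound or vehicle. Survival was recorded in each group, and the value is the treated-group measurement divided by that of the vehicle-treated control group.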

[1] = dose: 50.0 mg/kg/injection, schedule: Q01DX005 (ip), vehicle: saline with Tween-80
[2] = dose: 120.0 mg/kg/injection, schedule: Q01DX005 (ip), vehicle: saline with Tween-80
[3] = dose: 200.0 mg/kg/injection, schedule: Q01DX005 (ip), vehicle: saline with Tween-80
[4] = dose: 100.0 mg/kg/injection, schedule: Q01DX001 (ip), vehicle: Klucel (hydroxypropylcellulose) (HPC)
[5] = dose: 200.0 mg/kg/injection, schedule: Q01DX001 (ip), vehicle: Klucel (hydroxypropylcellulose) (HPC)
[6] = dose: 400.0 mg/kg/injection, schedule: Q01DX001 (ip), vehicle: Klucel (hydroxypropylcellulose) (HPC)
[7] = dose: 25.0 mg/kg/injection, schedule: Q01DX009 (ip), vehicle: saline with Tween-80
[8] = dose: 100.0 mg/kg/injection, schedule: Q01DX005 (ip), vehicle: saline with Tween-80
[9] = dose: 60.0 mg/kg/injection, schedule: Q01DX005 (ip), vehicle: saline with Tween-80
[10] = dose: 240.0 mg/kg/injection, schedule: Q01DX005 (ip), vehicle: saline with Tween-80

Measured: T/C

COc1ccc(CC#N)cc1OC
inactive: dose: 3.75 mg/kg/injection, schedule: Q01DX009 (ip), vehicle: saline with Tween-80 90 % of control | dose: 7.5 mg/kg/injection, schedule: Q01DX009 (ip), vehicle: saline with Tween-80 90 % of control | dose: 15.0 mg/kg/injection, schedule: Q01DX009 (ip), vehicle: saline with Tween-80 90 % of control

COC(=O)/C(C)=C\n1ccccc1=O
inactive: dose: 60.0 mg/kg/injection, schedule: Q01DX005 (ip), vehicle: saline 97 % of control | dose: 120.0 mg/kg/injection, schedule: Q01DX005 (ip), vehicle: saline 99 % of control | dose: 240.0 mg/kg/injection, schedule: Q01DX005 (ip), vehicle: saline 98 % of control

CC(C=O)CC1CCCCC1 (stereo unspecified)
inactive: dose: 50.0 mg/kg/injection, schedule: Q04DX003 (ip), vehicle: saline with Tween-80 100 % of control | dose: 100.0 mg/kg/injection, schedule: Q04DX003 (ip), vehicle: saline with Tween-80 100 % of control | dose: 200.0 mg/kg/injection, schedule: Q04DX003 (ip), vehicle: saline with Tween-80 109 % of control

Cc1ccc(S(=O)(=O)N/N=C/C=C\C(=O)O)cc1
inactive: dose: 12.5 mg/kg/injection, schedule: Q01DX009 (ip), vehicle: distilled water + Tween-80 101 % of control | dose: 25.0 mg/kg/injection, schedule: Q01DX009 (ip), vehicle: distilled water + Tween-80 99 % of control | dose: 50.0 mg/kg/injection, schedule: Q01DX009 (ip), vehicle: distilled water + Tween-80 107 % of control | dose: 100.0 mg/kg/injection, schedule: Q01DX009 (ip), vehicle: distilled water + Tween-80 100 % of control | dose: 200.0 mg/kg/injection, schedule: Q01DX009 (ip), vehicle: distilled water + Tween-80 94 % of control | dose: 400.0 mg/kg/injection, schedule: Q01DX009 (ip), vehicle: distilled water + Tween-80 110 % of control

O=c1c2[nH]c3ccccc3sc=2c(=O)n1-c1ccccc1Cl
inactive: [1] 98 % of control | [2] 98 % of control | [3] 97 % of control

Cc1ccc(C2(O)CC3CCC(C2)N3C)cc1 (stereo unspecified)
inactive: [4] 103 % of control | [5] 110 % of control | [6] 101 % of control

C[N+](C)(Cc1ccccc1)c1nnn[n-]1
inactive: dose: 50.0 mg/kg/injection, schedule: Q01DX001 (ip), vehicle: Klucel (hydroxypropylcellulose) (HPC) 97 % of control | [4] 95 % of control | [5] 105 % of control

CCN(C)c1cc2c3c(c1)CCCN3CCC2
inactive: dose: 1.25 mg/kg/injection, schedule: Q01DX009 (ip), vehicle: saline 113 % of control | dose: 1.25 mg/kg/injection, schedule: Q04DX003 (ip), vehicle: saline 100 % of control | dose: 2.5 mg/kg/injection, schedule: Q01DX009 (ip), vehicle: saline 109 % of control | dose: 2.5 mg/kg/injection, schedule: Q04DX003 (ip), vehicle: saline 95 % of control | dose: 5.0 mg/kg/injection, schedule: Q01DX009 (ip), vehicle: saline 104 % of control | dose: 5.0 mg/kg/injection, schedule: Q04DX003 (ip), vehicle: saline 109 % of control

CC1C[As+](c2ccccc2)(c2ccccc2)CC(C)N1C.[O-][Cl+3]([O-])([O-])[O-] (stereo unspecified)
inactive: [7] 100 % of control | dose: 50.0 mg/kg/injection, schedule: Q01DX009 (ip), vehicle: saline with Tween-80 104 % of control | dose: 100.0 mg/kg/injection, schedule: Q01DX009 (ip), vehicle: saline with Tween-80 106 % of control

CC(=O)OC(COS(C)(=O)=O)C(OC(C)=O)C(OC(C)=O)C(COS(C)(=O)=O)OC(C)=O (stereo unspecified)
inactive: [4] 108 % of control | [5] 100 % of control | [6] 117 % of control

CC1CC(O)C(CN(C)C)C(C)(C)C1 (stereo unspecified)
inactive: [1] 106 % of control | [8] 100 % of control

Cc1ccc(S(=O)(=O)OC2C(OCc3ccccc3)OCC(O)C2O)cc1 (stereo unspecified)
inactive: [1] 102 % of control | [8] 100 % of control | [3] 100 % of control

O=[N+]([O-])c1ccc(C(S(=O)(=O)Cc2ccccc2)S(=O)(=O)Cc2ccccc2)cc1
inactive: dose: 50.0 mg/kg/injection, schedule: Q01DX009 (ip), vehicle: Klucel (hydroxypropylcellulose) (HPC) 93 % of control | dose: 100.0 mg/kg/injection, schedule: Q01DX009 (ip), vehicle: Klucel (hydroxypropylcellulose) (HPC) 89 % of control | dose: 200.0 mg/kg/injection, schedule: Q01DX009 (ip), vehicle: Klucel (hydroxypropylcellulose) (HPC) 90 % of control

FC(F)(F)c1cccc(-n2nnnc2Oc2ccc(-c3ccccc3)cc2)c1
inactive: [1] 97 % of control | [8] 101 % of control | [3] 90 % of control

COc1ccc2c(C)c[nH]c2c1
inactive: dose: 100.0 mg/kg/injection, schedule: Q01DX001 (ip), vehicle: saline with Tween-80 100 % of control | dose: 200.0 mg/kg/injection, schedule: Q01DX001 (ip), vehicle: saline with Tween-80 118 % of control | dose: 400.0 mg/kg/injection, schedule: Q01DX001 (ip), vehicle: saline with Tween-80 100 % of control

O=[N+]([O-])c1ccccc1N=Nc1c(-c2ccccc2)nn(C(=S)S)c1-c1ccccc1
inactive: dose: 25.0 mg/kg/injection, schedule: Q04DX002 (ip), vehicle: Klucel (hydroxypropylcellulose) (HPC) 99 % of control | dose: 50.0 mg/kg/injection, schedule: Q04DX002 (ip), vehicle: Klucel (hydroxypropylcellulose) (HPC) 101 % of control | dose: 100.0 mg/kg/injection, schedule: Q04DX002 (ip), vehicle: Klucel (hydroxypropylcellulose) (HPC) 105 % of control | dose: 200.0 mg/kg/injection, schedule: Q04DX002 (ip), vehicle: Klucel (hydroxypropylcellulose) (HPC) 112 % of control

O=c1c2ccccc2[nH]c2c([N+](=O)[O-])ccc(Oc3ccc(CCc4ccc(Oc5ccc([N+](=O)[O-])c6[nH]c7ccccc7c(=O)c56)cc4)cc3)c12
inactive: dose: 6.25 mg/kg/injection, schedule: Q01DX009 (ip), vehicle: saline with Tween-80 101 % of control | dose: 12.5 mg/kg/injection, schedule: Q01DX009 (ip), vehicle: saline with Tween-80 100 % of control | [7] 100 % of control | dose: 200.0 mg/kg/injection, schedule: Q01DX009 (ip), vehicle: saline with Tween-80 91 % of control

N#CC1(OC2OC(CO)C(O)C(O)C2O)C=CC(OS(=O)(=O)O)C1 (stereo unspecified)
inactive: dose: 25.0 mg/kg/injection, schedule: Q01DX005 (ip), vehicle: saline 103 % of control | dose: 50.0 mg/kg/injection, schedule: Q01DX005 (ip), vehicle: saline 100 % of control | dose: 100.0 mg/kg/injection, schedule: Q01DX005 (ip), vehicle: saline 116 % of control | dose: 200.0 mg/kg/injection, schedule: Q01DX005 (ip), vehicle: saline 97 % of control

O=C1Nc2ccccc2C1NC(=S)Nc1ccc(Br)cc1 (stereo unspecified)
inactive: [9] 91 % of control | [2] 94 % of control | [10] 88 % of control

O=C1CSC(c2ccccn2)N1CCN1C(=O)CSC1c1ccccn1 (stereo unspecified)
inactive: dose: 50.0 mg/kg/injection, schedule: Q01DX005 (ip), vehicle: Klucel (hydroxypropylcellulose) (HPC) 94 % of control | dose: 100.0 mg/kg/injection, schedule: Q01DX005 (ip), vehicle: Klucel (hydroxypropylcellulose) (HPC) 96 % of control | dose: 100.0 mg/kg/injection, schedule: Q04DX002 (ip), vehicle: saline with Tween-80 97 % of control | dose: 200.0 mg/kg/injection, schedule: Q01DX005 (ip), vehicle: Klucel (hydroxypropylcellulose) (HPC) 97 % of control | dose: 200.0 mg/kg/injection, schedule: Q04DX002 (ip), vehicle: saline with Tween-80 102 % of control | dose: 400.0 mg/kg/injection, schedule: Q04DX002 (ip), vehicle: saline with Tween-80 93 % of control

COc1ccc(C(O)c2cnc(C)n2Cc2ccccc2)cc1 (stereo unspecified)
inactive: [9] 99 % of control | [2] 100 % of control | [10] 94 % of control

CCN1C(=O)CC([Se]c2ccccc2)C1=O (stereo unspecified)
inactive: dose: 6.25 mg/kg/injection, schedule: Q04DX003 (ip), vehicle: Klucel (hydroxypropylcellulose) (HPC) 99 % of control and 103 % of control | dose: 12.5 mg/kg/injection, schedule: Q04DX003 (ip), vehicle: Klucel (hydroxypropylcellulose) (HPC) 99 % of control and 102 % of control | dose: 25.0 mg/kg/injection, schedule: Q04DX003 (ip), vehicle: Klucel (hydroxypropylcellulose) (HPC) 100 % of control and 105 % of control | dose: 50.0 mg/kg/injection, schedule: Q04DX003 (ip), vehicle: Klucel (hydroxypropylcellulose) (HPC) 103 % of control and 104 % of control | dose: 100.0 mg/kg/injection, schedule: Q04DX003 (ip), vehicle: Klucel (hydroxypropylcellulose) (HPC) 100 % of control and 104 % of control

CCC/C(=N\NC(N)=NC)c1ccc2c(c1)Cc1cc(/C(CCC)=N/NC(N)=NC)ccc1-2
inactive: dose: 3.12 mg/kg/injection, schedule: Q04DX002 (ip), vehicle: saline with Tween-80 96 % of control | dose: 6.25 mg/kg/injection, schedule: Q04DX002 (ip), vehicle: saline with Tween-80 100 % of control

Reference: PubChem BioAssay AID330 (DTP/NCI, 2004)
